Numbers after ± are expanded uncertainties.
| Structure (SMILES) | Triple point temperature (Liquid crystal of unknown type) [K] | Triple point temperature (Nematic liquid crystal) [K] |
| --- | --- | --- |
| CCCCCCCCCCOc1cc(C=NNC(=O)c2ccc(N=Cc3cc(OCCCCCCCCCC)c(OCCCCCCCCCC)c(OCCCCCCCCCC)c3)cc2)cc(OCCCCCCCCCC)c1OCCCCCCCCCC | 385.85 ± 2 | – |
| CCCCCOc1ccc(-c2ccc(C#N)cc2)cc1 [4'-pentoxy-4-cyanobiphenyl] | – | 339.75 ± 2 |

From the NIST ThermoML archive (doi:10.1016/j.tca.2015.08.007)
